We go through 3 compounds from patent publication US5661156A, “Rapamycin derivatives” (SmithKline Beecham Corporation, priority 1995, dated 1997).

For assay [1], the system named is Spleen cells from BDF1 female mice. In words: Mitogenesis Assay for Immunosuppressive Activity (concanavalin A, 3H-thymidine). The format is cell-based. The settings on record: BDF1 mouse spleen cells, Concanavalin A 5 μg/ml, 72 hours, 3H-thimidine last 18 hours. The method, then:
(§1) Mitogenesis Assay for Immunosuppressive Activity
Spleen cells from BDF1 female mice were established in RPMI with 10% fetal calf serum at 5×10^6 /mL. One hundred […] of this suspension (5×10^5 cells) were dispensed into 96-well round-bottomed microtiter plates (Linbro, Flow Laboratories). Concanavalin A (5 μg/ml)was added as the mitogenic stimulus, and the final volume in the microtiter wells was adjusted to 200 μL with RPMI. Cell cultures were incubated for 72 hours at 37° C. in a 5% CO2 atmosphere and pulsed with 0.5 μCi ^3 H-thymidine (specific activity […]) for the last 18 hours of the 72 hour culture. The cells were harvested on an automated multiple sample harvester and cell-associated radioactivity counted in a Beckman liquid scintillation counter. The results are expressed as the mean values derived from quadruplicate measurements. Cell viability was determined by trypan blue exclusion after 72 hours of incubation. Compounds to be tested were added to the microtiter plates at the appropriate dilutions prior to the addition of cells.

The subject of the next assay is Saccharomyces cerevisiae. The experiment in a line: Assay for Antifungal Activity (zones of inhibition on agar). The format is cell-based. Conditions: YPD agar wells, 48 hours. The method, then:
Assay for Antifungal Activity
Yeast organism (Saccharomyces cerevisiae) in logarithmic growth were plated on complete agar medium (YPD). Compounds dissolved in an appropriate aqueous or organic solvent were placed in wells punched in the agar. Plates were incubated for 48 hours and zones of inhibition were measured.
as §1

With 14-Desoxo-13-Methoxy-Rapamycin, the IC50 in assay [1] came to 1000 nM. Further, in the assay on Saccharomyces cerevisiae, the “Yeast IC12” value turned out to be 52 ng/mL. For `CO[C@H]1CCC[C@@H](C[C@@H](C)[C@@H]2CC(=O)[C@H](C)/C=C(\C)[C@@H](O)[C@@H](OC)C(=O)[C@H](C)C[C@H](C)/C=C/C=C/C=C(\C)[C@@H](OC)C[C@@H]3CC[C@@H](C)[C@@](O)(O3)C(=O)C(=O)N3CCCC[C@H]3C(=O)O2)C1` [Example 1, 43-Deshydroxyrapamycin], the IC50 in assay [1] turned out to be 0.5 nM. For the compound `CO[C@H]1C[C@@H]2CC[C@@H](C)[C@](O)(CC(=O)N3CCCC[C@H]3C(=O)O[C@H]([C@H](C)C[C@@H]3CC[C@@H](O)[C@H](OC)C3)CC(=O)[C@H](C)/C=C(\C)[C@@H](O)[C@@H](OC)C(=O)[C@H](C)C[C@H](C)/C=C/C=C/C=C/1C)O2` [Example 3, 14-Deoxorapamycin], the half-inhibitory concentration (IC50) in assay [1] is 15 nM.

By IC50 is commonly meant the concentration that gives 50% inhibition. Low values mean greater potency in that assay, high ones weaker potency in that assay.
